Measurements: ChEMBL document CHEMBL4819081 (Eur J Med Chem, 2021)
Calls of active or inactive are those of the source. The rule behind the calls is not given here.

What was measured:
[1] = biological target: T1, CDK6/cyclin D3 (Homo sapiens) (UniProt P30281+Q00534); assay: Inhibition of CDK6/Cyclin D3 (unknown origin) at 200 nM using ATP by mobility shift assay; assay type: protein-complex assay
MDA-MB-231 [2] = assay: Antitumor activity against human MDA-MB-231 cells xenografted in po dosed BALB/c mouse assessed as reduction in tumor weight measured every 3 days for 21 days; assay type: functional, organism-based; settings: dose 40-80 mg/kg, time […]
MDA-MB-231 [3] = assay: Induction of cell cycle arrest in human MDA-MB-231 cells assessed as accumulation at G1 phase at 1.5 uM after 12 hrs by propidium iodide staining-based flow cytometric analysis (reference value: 53.11%); assay type: functional
[4] = Toxicity in BALB/c mouse xenografted with human MDA-MB-231 cells assessed as body weight change at 40 to 80 mg/kg, po measured every 3 days for 21 days; assay type: organism-based; settings: in vivo, 72 h, dose 40-80 mg/kg, time 3 day
CDK2/Cyclin A2 = CDK2/Cyclin A2 (Homo sapiens, UniProt P24941); assay: Inhibition of CDK2/cyclin A2 (unknown origin); assay type: protein-complex assay
MDA-MB-231 [5] = assay: Induction of cell cycle arrest in human MDA-MB-231 cells assessed as accumulation at S phase at 0.1875 uM after 12 hrs by propidium iodide staining-based flow cytometric analysis (reference value: 21.11%); assay type: functional
NCI-H1299 [6] = assay: Potency index, ratio of IC50 for Palbociclib to IC50 for test compound for antiproliferative activity against human H1299 cells assessed as reduction in cell viability after 72 hrs by MTT assay; assay type: functional
MDA-MB-231 [7] = assay: Induction of cell cycle arrest in human MDA-MB-231 cells assessed as accumulation at G1 phase at 0.375 uM after 12 hrs by propidium iodide staining-based flow cytometric analysis (reference value: 53.11%); assay type: functional
[8] = biological target: Cyclin-dependent kinase 9 (Homo sapiens, UniProt P50750); assay: Inhibition of CDK9 (unknown origin)
Chain of Cyclin-dependent kinase 9 (P50750 whole entry): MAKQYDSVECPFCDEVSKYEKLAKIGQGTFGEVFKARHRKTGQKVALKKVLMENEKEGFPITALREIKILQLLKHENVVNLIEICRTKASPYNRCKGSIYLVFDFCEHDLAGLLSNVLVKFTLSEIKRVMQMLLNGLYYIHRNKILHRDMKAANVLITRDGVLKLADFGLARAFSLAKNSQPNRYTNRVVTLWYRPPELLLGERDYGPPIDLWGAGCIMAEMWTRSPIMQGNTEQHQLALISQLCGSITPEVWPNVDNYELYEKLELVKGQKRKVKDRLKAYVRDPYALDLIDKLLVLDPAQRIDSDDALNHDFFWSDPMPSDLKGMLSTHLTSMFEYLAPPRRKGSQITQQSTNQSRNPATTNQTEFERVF

MDA-MB-231 [9] = assay: Induction of cell cycle arrest in human MDA-MB-231 cells assessed as accumulation at G2 phase at 0.75 uM after 12 hrs by propidium iodide staining-based flow cytometric analysis (reference value: 21.11%); assay type: functional
[10] = Inhibition of clone formation in human MDA-MB-231 cells at 0.625 uM after 14 days by crystal violet staining based-colony formation assay; assay type: functional; settings: MDA-MB-231, 336 h, time 14 day
MDA-MB-453 = assay: Potency index, ratio of IC50 for Palbociclib to IC50 for test compound for antiproliferative activity against human MDA-MB-453 cells assessed as reduction in cell viability after 72 hrs by MTT assay; assay type: functional
MDA-MB-231 [11] = assay: Induction of apoptosis in human MDA-MB-231 cells assessed as early apoptotic cells at 5 uM after 24 hrs by Annexin-V/PI-staining based flow cytometry (reference value: 2.67%); assay type: functional
MDA-MB-231 [12] = assay: Induction of cell cycle arrest in human MDA-MB-231 cells assessed as accumulation at G1 phase at 0.1875 uM after 12 hrs by propidium iodide staining-based flow cytometric analysis (reference value: 53.11%); assay type: functional
MCF7 = assay: Potency index, ratio of IC50 for Palbociclib to IC50 for test compound for antiproliferative activity against human MCF7 cells assessed as reduction in cell viability after 72 hrs by MTT assay; assay type: functional
MDA-MB-231 [13] = assay: Inhibition of clone formation in human MDA-MB-231 cells at 0.16 uM after 14 days by crystal violet staining based-colony formation assay; assay type: functional, cell-based; settings: time 14.0 day
MDA-MB-231 [14] = assay: Induction of cell cycle arrest in human MDA-MB-231 cells assessed as accumulation at S phase at 0.375 uM after 12 hrs by propidium iodide staining-based flow cytometric analysis (reference value: 21.11%); assay type: functional
MDA-MB-231 [15] = assay: Potency index, ratio of IC50 for Palbociclib to IC50 for test compound for antiproliferative activity against human MDA-MB-231 cells assessed as reduction in cell viability after 72 hrs by MTT assay; assay type: functional
NCI-H1299 [16] = assay: Antiproliferative activity against human NCI-H1299 cells assessed as reduction in cell viability after 72 hrs by MTT assay; assay type: functional, cell-based; settings: NCI-H1299, 72 h
MDA-MB-231 [17] = assay: Induction of cell cycle arrest in human MDA-MB-231 cells assessed as accumulation at S phase at 0.375 uM after 12 hrs by propidium iodide staining-based flow cytometric analysis (reference value: 23.71%); assay type: functional
MDA-MB-231 [18] = assay: Antitumor activity against human MDA-MB-231 cells xenografted in BALB/c mouse assessed as tumor growth inhibition at 80 mg/kg, po measured every 3 days for 21 days; assay type: functional; settings: MDA-MB-231, po, 504 h, time 21 day, read-out: TGI
MDA-MB-231 [19] = assay: Induction of apoptosis in human MDA-MB-231 cells assessed as late apoptotic cells at 0.625 uM after 24 hrs by Annexin-V/PI-staining based flow cytometry (reference value: 3.02%); assay type: functional
[20] = biological target: Cyclin-dependent kinase 4/6 (Homo sapiens) (UniProt P11802+Q00534); assay: Inhibition of CDK4/6 in human MDA-MB-231 cells assessed as reduction in Rb phosphorylation at Ser780 after 24 hrs by western blot analysis; assay type: cell-based; settings: dose 0.5-4 µM
Chain of Cyclin-dependent kinase 4/6 (Homo sapiens) (P11802 whole entry, looked up): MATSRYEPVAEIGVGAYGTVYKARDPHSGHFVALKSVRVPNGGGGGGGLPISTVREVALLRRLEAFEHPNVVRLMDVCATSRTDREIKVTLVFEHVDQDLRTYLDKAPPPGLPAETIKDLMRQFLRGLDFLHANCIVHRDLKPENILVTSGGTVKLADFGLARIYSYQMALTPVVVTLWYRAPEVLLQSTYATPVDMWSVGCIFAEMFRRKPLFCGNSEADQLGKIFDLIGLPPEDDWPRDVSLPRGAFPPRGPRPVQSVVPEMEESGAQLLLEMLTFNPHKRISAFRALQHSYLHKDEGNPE
Chain of Cyclin-dependent kinase 4/6 (Homo sapiens) (Q00534 whole entry, looked up): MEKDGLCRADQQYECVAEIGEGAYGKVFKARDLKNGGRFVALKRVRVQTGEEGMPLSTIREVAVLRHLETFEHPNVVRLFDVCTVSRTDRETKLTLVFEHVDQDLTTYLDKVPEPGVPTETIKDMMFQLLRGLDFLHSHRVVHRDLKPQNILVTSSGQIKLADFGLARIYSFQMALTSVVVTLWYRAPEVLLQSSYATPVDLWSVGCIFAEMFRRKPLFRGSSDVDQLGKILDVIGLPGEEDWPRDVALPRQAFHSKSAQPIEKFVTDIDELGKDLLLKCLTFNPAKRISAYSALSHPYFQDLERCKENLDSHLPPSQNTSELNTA

MDA-MB-231 [21] = assay: Induction of apoptosis in human MDA-MB-231 cells assessed as early apoptotic cells at 2.5 uM after 24 hrs by Annexin-V/PI-staining based flow cytometry (reference value: 2.67%); assay type: functional
MDA-MB-231 [22] = assay: Induction of apoptosis in human MDA-MB-231 cells assessed as late apoptotic cells at 1.25 uM after 24 hrs by Annexin-V/PI-staining based flow cytometry (reference value: 3.02%); assay type: functional
[23] = biological target: Cyclin-dependent kinase 4/cyclin D1 (Homo sapiens) (UniProt P11802+P24385); assay: Inhibition of CDK4/Cyclin D1 (unknown origin) at 20 nM using ATP by mobility shift assay; assay type: protein-complex assay
[24] = biological target: T1, CDK6/cyclin D3 (Homo sapiens); assay: Inhibition of CDK6/Cyclin D3 (unknown origin) at 20 nM using ATP by mobility shift assay; assay type: protein-complex assay
MDA-MB-231 [25] = assay: Induction of cell cycle arrest in human MDA-MB-231 cells assessed as accumulation at G1 phase at 0.75 uM after 12 hrs by propidium iodide staining-based flow cytometric analysis (reference value: 53.11%); assay type: functional
CDK4/Cyclin D3 = CDK4/Cyclin D3 (Homo sapiens, UniProt P11802); assay: Inhibition of CDK4/Cyclin D3 (unknown origin) by mobility shift assay; assay type: protein-complex assay
Chain of CDK4/Cyclin D3 (P11802 whole entry): as the sequence (P11802 whole entry, looked up) above
Chain of CDK4/Cyclin D3 (P30281 whole entry, further chain): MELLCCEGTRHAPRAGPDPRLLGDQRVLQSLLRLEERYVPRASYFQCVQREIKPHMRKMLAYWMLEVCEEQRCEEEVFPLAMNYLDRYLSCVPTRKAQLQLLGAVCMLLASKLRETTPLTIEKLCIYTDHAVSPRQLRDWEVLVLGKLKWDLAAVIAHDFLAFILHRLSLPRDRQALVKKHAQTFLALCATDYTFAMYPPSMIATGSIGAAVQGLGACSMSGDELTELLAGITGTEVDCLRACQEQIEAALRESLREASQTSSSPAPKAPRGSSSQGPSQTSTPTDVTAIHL

MDA-MB-231 [26] = assay: Induction of apoptosis in human MDA-MB-231 cells assessed as late apoptotic cells at 2.5 uM after 24 hrs by Annexin-V/PI-staining based flow cytometry (reference value: 3.02%); assay type: functional
MDA-MB-231 [27] = assay: Antiproliferative activity against human MDA-MB-231 cells assessed as reduction in cell viability after 72 hrs by MTT assay; assay type: functional, cell-based; settings: MDA-MB-231, 72 h
MDA-MB-231 [28] = assay: Antitumor activity against human MDA-MB-231 cells xenografted in BALB/c mouse assessed as tumor growth inhibition at 40 mg/kg, po measured every 3 days for 21 days; assay type: functional; settings: MDA-MB-231, po, 504 h, time 21 day, read-out: TGI
MDA-MB-231 [29] = assay: Induction of cell cycle arrest in human MDA-MB-231 cells assessed as accumulation at S phase at 0.1875 uM after 12 hrs by propidium iodide staining-based flow cytometric analysis (reference value: 23.71%); assay type: functional

SMILES: CC(=O)c1c(C)c2cnc(Nc3ccc(N4CCN(C(=O)CCl)CC4)cn3)nc2n(C2CCCC2)c1=O
- inhibition [1]: 95.3%
- inhibition (MDA-MB-231 [2]): Dose-Dependent Effect
- Activity (MDA-MB-231 [3]): 71.12%
- Activity [4]: Non-Toxic
- IC50 (CDK2/Cyclin A2): 7.6 µM
- Activity (MDA-MB-231 [5]): 13.82%
- Ratio IC50 (NCI-H1299 [6]): 4
- Activity (MDA-MB-231 [7]): 68.34%
- IC50 [8]: 1.83 µM
- Activity (MDA-MB-231 [9]): 16.49%
- inhibition at 0.625 µM [10]: 100%
- Ratio IC50 (MDA-MB-453): 40
- Activity (MDA-MB-231 [11]): 44.02%
- Activity (MDA-MB-231 [12]): 68.04%
- Ratio IC50 (MCF7): 40
- inhibition (MDA-MB-231 [13]): Active
- Activity (MDA-MB-231 [14]): 14.99%
- Ratio IC50 (MDA-MB-231 [15]): 4
- IC50 (NCI-H1299 [16]): 2.49 µM
- Activity (MDA-MB-231 [17]): 15.36%
- inhibition in vivo at 80 mg/kg (MDA-MB-231 [18]): 105%
- Activity (MDA-MB-231 [19]): 3.82%
- inhibition [20]: Dose-Dependent Effect
- Activity (MDA-MB-231 [21]): 17.09%
- Activity (MDA-MB-231 [22]): 9.72%
- inhibition [23]: 61.7%
- inhibition [24]: 81.6%
- Activity (MDA-MB-231 [25]): 71%
- IC50 (CDK4/Cyclin D3): 0.0061 µM
- Activity (MDA-MB-231 [26]): 31.65%
- IC50 (MDA-MB-231 [27]): 1.21 µM
- inhibition in vivo at 40 mg/kg (MDA-MB-231 [28]): 93.5%
- Activity (MDA-MB-231 [29]): 15.55%
